In PubChem BioAssay AID2305 (GlaxoSmithKline (GSK), 2010):
Several values for one entry are separate records, joined by “and”; a condition that tells them apart may be missing. Identical values can stand only once.

Test system: P. falciparum 3D7 growth, pLDH absorbance
Assay: P. falciparum 3D7 growth inhibition, dose response, strain 3D7 (AID 2305)

Row | SMILES | IC50
1 | Cc1cc(N[C@@H](Cc2ccccc2)C(=O)NC2CCCC2)nc(Nc2ccccc2)n1 | 830 nM
2 | Cc1cccc2[nH]c(-c3ccc(-c4cccc(C(=O)NCCc5cn(C)cn5)c4)s3)nc12 | 880 nM
3 | O=C(Nc1nc(-c2ccccn2)cc2ccccc12)c1cccc(Cl)c1 | 750 nM
4 | O=C(CSc1nc2ccccc2c(=O)n1C1CC1)Nc1cc(C(F)(F)F)ccc1Cl | 110 nM
5 | c1cc(CN2CCC(CCN3CCCCC3)CC2)cc(-c2csc(-c3nc4ccccc4[nH]3)c2)c1 | 140 nM
6 | CCCCCCCN1CC[C@@H](CCCc2ccnc3ccc(OC)cc23)[C@@H](CCN)C1 | 750 nM
7 | CCOc1ncccc1CN1CCC(N2CCc3cc(NC(=O)c4ccco4)ccc32)C1 (centres undefined) | 760 nM
8 | CCCCc1ccc(-c2nc(NC(=O)Nc3nc(-c4ccccc4)[nH]c3C(=O)OCC)c(C(=O)OCC)[nH]2)cc1 | 750 nM
9 | Cc1ccc(NC(=O)Cc2noc(CC3CCCN3C(=O)N[C@@H](C)c3ccccc3)n2)cc1 (some centres undefined) | 370 nM
10 | Cc1cnc(NCCc2ccc(F)cc2)nc1N[C@@H](CC(C)C)C(=O)Nc1ccccc1 | 970 nM
11 | Clc1ccc2c(NN=Cc3cccs3)ccnc2c1 | 920 nM
12 | Nc1nccc2ccc(-c3cccnc3)cc12 | 420 nM
13 | COCCN(CCOC)c1ncc(-c2ccsc2)c(-c2nc(C)c(C)s2)n1 | 840 nM
14 | O=C(/C=C/c1ccc(Cl)c(Cl)c1)NCCCCCN1CCCN(C(=O)Nc2ccc(C(F)(F)F)cc2)CC1 | 690 nM
15 | O=C(Nc1cc(Cl)cc(Cl)c1)c1cc(Cl)c(=O)n(Cc2cccc(Cl)c2)c1 | 750 nM
16 | Cc1ccc(C(=O)Nc2ccc(-c3nc4ccccc4[nH]3)cc2)cc1S(=O)(=O)N1CCOCC1 | 1210 nM
17 | O=C(Nc1cccc(-c2cccc(-c3nc4ccccc4[nH]3)c2)c1)c1csnn1 | 920 nM
18 | Cc1cc(=O)c(-c2ccc(Oc3cccc(C(F)(F)F)c3)cc2)c(C)[nH]1 | 630 nM and 210 nM
19 | NC(=O)c1cccc(C(=O)Nc2ccc(-c3cccc(-c4nc5ccc(C(F)(F)F)cc5[nH]4)c3)cc2)c1 | 350 nM
20 | O=C(NCCN1CCCC1)c1ccc(-c2cccc(-c3nc4ccc(F)cc4[nH]3)c2)cc1 | 770 nM
21 | FC(F)(F)c1cccc(CCNc2nccc(NCc3ccc(Cl)cc3Cl)n2)c1 | 860 nM
22 | O=C(Nc1ccc(Cn2ncc(N3CCCNCC3)c(Cl)c2=O)cc1)Nc1ccc(C(F)(F)F)cc1 | 730 nM
23 | O=C(Nc1ccc(OC2CCN(Cc3ccccc3)CC2)c(Cl)c1)c1ccc(F)cc1 | 800 nM

Row | SMILES | IC50
24 | Cc1cc(NCCCCCCCCNc2cc(C)nc3ccccc23)c2ccccc2n1 | 990 nM
25 | CNS(=O)(=O)CCNCc1ccc(-c2ccc3ncnc(Nc4ccc(OCc5ccccc5)cc4)c3c2)o1 | 730 nM
26 | CC(C)C[C@@H](/C=N/N1CCNC1=O)NC(=O)[C@H](CC(C)C)NC(=O)c1ccc(OCCN2CCOCC2)cc1 | 190 nM
27 | CCCNCc1ccc(-c2ccc(CN(CCOC)C(=O)c3cscn3)cc2)nc1 | 180 nM
28 | CC1(C)CC(NCCCCCCCOc2ccc(OCc3ccccc3)cc2)CC(C)(C)N1 | 830 nM
29 | O=C(Nc1ccc(Cl)cc1)Nc1ccc(OCC(O)CN2CCCCC2)cc1 (centres undefined) | 1160 nM
30 | CC(C)C1=C[C@H]2C[C@]3(C4OCCO4)[C@@H]4CC[C@@H](C)[C@H]4C[C@@]2(COCc2cccc(C#N)c2)[C@]13C(=O)OC(c1ccccc1)c1ccccc1 | 1790 nM
31 | NC(N)=NN=CC(=O)Nc1ccc(Cl)c(C(F)(F)F)c1 | 890 nM
32 | CN(C)CCNCc1ccc(-c2ccc3c(Nc4ccc(F)cc4Cl)ccnc3c2)o1 | 140 nM
33 | C[C@@H]1CN(c2cccc3c2nc(-c2cncc(C#N)c2)n3CCNCc2ccccc2)C[C@H](C)O1 | 1220 nM
34 | COc1ccc(CCn2c(=N)c(C(=O)NCc3cccnc3)cc3c(=O)n4ccccc4nc32)cc1 | 880 nM
35 | NC1CCN(Cc2cccc(-c3ccc(-c4nc5ccccc5[nH]4)cc3)c2)C1 (centres undefined) | 830 nM
36 | C=CCOC(=O)N1CCC(CNCc2ccc(-c3cccc(-c4nc5ccc(F)cc5[nH]4)c3)cc2)C1 (centres undefined) | 140 nM
37 | Cc1cc(C2NC(=O)c3ccccc3N2)c(C)n1-c1ccc2c(c1)OCO2 (centres undefined) | 730 nM
38 | O=C(Nc1cccc(CN2CCCN(Cc3ccc(O)cc3)CC2)c1)c1cccc(Cl)c1 | 910 nM
39 | Cn1cncc1-c1cc2c(Nc3ccc(OCc4ccccc4)cc3)ncnc2cn1 | 270 nM
40 | CCN(CC)S(=O)(=O)c1ccc(C=CC(=O)Nc2cc(Cl)ccc2N2CCOCC2)cc1 | 920 nM
41 | CCCNC(=O)c1cncc(-c2ccc(CNC(CC)c3ccccc3)cc2)c1 (centres undefined) | 880 nM
42 | Cc1nc(-c2cccc(NCc3ccccc3)c2)[nH]c1C | 860 nM
43 | Cc1c(Cl)cccc1S(=O)(=O)Nc1ccc(CCN2CCC(N)CC2)cc1 | 1460 nM
44 | COc1ccccc1OCCN(CC(O)COc1cccc2[nH]c3ccccc3c12)CC(O)COc1cccc2[nH]c3ccccc3c12 (centres undefined) | 640 nM
45 | O=C(Nc1ccc(Br)c(C(F)(F)F)c1)c1cccc([N+](=O)[O-])c1 | 910 nM
46 | c1cc(CNCCN2CCNCC2)cc(-c2cccc(-c3nc4ccccc4[nH]3)c2)c1 | 960 nM

Row | SMILES | IC50
47 | COc1cc2nc(C)nc(Nc3ccc4c(ccn4Cc4ccccc4)c3)c2cc1OC | 560 nM
48 | COc1ccccc1N1CCN(CCCCNC(=O)c2ccc(NC(=O)c3ccc4ccccc4c3)cc2)CC1 | 800 nM
49 | N#Cc1ccc(/C=C/C(=O)NCCCCCN2CCN(C(=O)Nc3ccc(Cl)c(C(F)(F)F)c3)CC2)cc1 | 780 nM
50 | COc1ccc2nccc([C@@H](O)CN3CCC(NCC(=O)Nc4cc(F)cc(F)c4)CC3)c2n1 | 910 nM
51 | O=C(/C=C/c1ccc(Cl)c(Cl)c1)NCCCCCCN1CCCN(C(=O)Nc2cccc(C(F)(F)F)c2)CC1 | 790 nM
52 | COc1ccc(CNCCCCCNCc2ccc(Cl)c(Cl)c2)cc1Cl | 750 nM
53 | N#Cc1ccc(/C=C/C(=O)NCCCCCN2CCCN(C(=O)Nc3ccc(Cl)c(C(F)(F)F)c3)CC2)cc1 | 440 nM
54 | CCN(CCCN1CCCC1)c1cc(C)nc(Nc2ccc(Cl)cc2)n1 | 340 nM
55 | CCCCNC(=O)[C@@H]1CCCN1C(=O)c1ccc(O)c(-c2ccc(Cl)c(Cl)c2)c1 | 750 nM
56 | O=C(O)c1cc(C(F)(F)F)co1 | 830 nM
57 | O=C(/C=C/c1ccc(Cl)c(Cl)c1)N1CCC(CCN2CCc3[nH]c4ccccc4c3C2)CC1 | 890 nM
58 | CCCCCCNCc1c(O)ccc2c(CNCCCCCC)c(O)ccc12 | 130 nM
59 | COc1ccc2c(c1)S(=O)(=O)N=C(N1CCCC1c1ccc(Cl)c(Cl)c1)N2C (centres undefined) | 1280 nM
60 | O=C(NC1CCC(CN2CCC(c3c[nH]c4ccccc34)CC2)CC1)c1cnn(-c2ccccc2)c1-c1ccccc1Cl (centres undefined) | 180 nM
61 | Cc1c(NCCCNCc2cc(Cl)cc(Cl)c2Cl)[nH]c2ccccc2c1=O | 310 nM
62 | O=C(C1CCN(C(c2ccccc2)c2ccc(Cl)c(Cl)c2)CC1)N1CC=CC1 (centres undefined) | 720 nM
63 | COc1ccc2c(C)cc(NCCCN(C)C)nc2c1 | 1100 nM
64 | CS(=O)(=O)c1ccccc1CNC(=O)c1ccc(-c2cccc(-c3nc4ccc(C(F)(F)F)cc4[nH]3)c2)cc1 | 870 nM
65 | CS(=O)(=O)NCCCNCc1ccc(-c2ccc(-c3nc4ccc(C(F)(F)F)cc4[nH]3)cc2)cc1 | 460 nM
66 | O=C(/C=C/c1ccc(Cl)c(Cl)c1)NCCCCCN1CCC(NC(=O)Nc2ccc(Br)cc2)CC1 | 570 nM
67 | CCn1ccc2c(N3CCCS3(=O)=O)cc(C(=O)N[C@@H](Cc3ccccc3)[C@H](O)CNC(C)(C)c3cccc(OC)c3)cc21 | 40 nM
68 | O=c1[nH]c2c(cc1CNC1CCCCC1)c(-c1ccc(F)cc1)nn2-c1ccccc1 | 800 nM
69 | O=C(NCC1CCN(Cc2ccc3c(c2)OCCO3)C1)c1cc(-c2cccc(C(F)(F)F)c2)cs1 (centres undefined) | 980 nM
